Like-named read-outs stand apart in the source and are kept apart here.
What was measured:
alpha2C receptor = biological target: T1, alpha2C receptor (Homo sapiens, UniProt P18825); assay: RSAT assay, alpha 2C; assay type: cell-based; details: for (rel. efficacy) Alpha 2C: ratio of maximal effect to standard full agonist brimonidine (UK14304)
T1 construct: expressed in transfected cells; host or cells: NIH-3T3
T1 sequence (P18825 1-462): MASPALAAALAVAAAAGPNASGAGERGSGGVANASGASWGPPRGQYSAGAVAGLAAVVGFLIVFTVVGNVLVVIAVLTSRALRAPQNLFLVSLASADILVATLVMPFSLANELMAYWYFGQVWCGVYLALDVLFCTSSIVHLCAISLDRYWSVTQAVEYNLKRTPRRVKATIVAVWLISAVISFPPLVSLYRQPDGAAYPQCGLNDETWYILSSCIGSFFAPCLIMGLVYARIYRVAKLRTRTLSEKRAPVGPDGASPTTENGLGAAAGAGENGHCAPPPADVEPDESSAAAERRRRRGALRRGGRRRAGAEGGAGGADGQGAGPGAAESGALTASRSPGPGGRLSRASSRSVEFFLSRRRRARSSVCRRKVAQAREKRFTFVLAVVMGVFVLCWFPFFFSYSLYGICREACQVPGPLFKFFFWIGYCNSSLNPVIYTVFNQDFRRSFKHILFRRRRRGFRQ
Procedure: (§1) Selected presently described compounds were synthesized and tested for alpha adrenergic activity using the Receptor Selection and Amplification Technology (RSAT) assay. Cells expressing each of the alpha-2-adrenergic receptors alone were incubated with various compounds and a receptor-mediated growth response was measured. The compound's activity is expressed as its relative efficacy compared to a standard full agonist.
(§2) The RSAT assay measures a receptor-mediated loss of contact inhibition that results in selective proliferation of receptor-containing cells in a mixed population of confluent cells. The increase in cell number is assessed with an appropriate transfected marker gene such as β-galactosidase, the activity of which can be easily measured in a 96-well format. Receptors that activate the G protein, Gq, elicit this response. Alpha2 receptors, which normally couple to Gi, activate the RSAT response when coexpressed with a hybrid Gq protein that has a Gi receptor recognition domain, called Gq/i5.
(§3) NIH-3T3 cells are plated at a density of 2×10^6 cells in 15 cm dishes and maintained in Dulbecco's modified Eagle's medium supplemented with 10% calf serum. One day later, cells are cotransfected by calcium phosphate precipitation with mammalian expression plasmids encoding p-SV-β-galactosidase (5-10 μg), receptor (1-2 μg) and G protein (1-2 μg). 40 μg salmon sperm DNA may also be included in the transfection mixture. Fresh media is added on the following day and 1-2 days later, cells are harvested and frozen in 50 assay aliquots. Cells are thawed and […] added to […] aliquots of various concentrations of drugs in triplicate in 96-well dishes. Incubations continue 72-96 hr at 37° C. After washing with phosphatebuffered saline, β-galactosidase enzyme activity is determined by adding 200 μl of the chromogenic substrate (consisting of 3.5 mM o-nitrophenyl-β-D-galactopyranoside and 0.5% nonidet P-40 in phosphate buffered saline), incubating overnight at 30° C. and measuring optical density at 420 nm. The absorbance is a measure of enzyme activity, which depends on cell number and reflects a receptor-mediated cell proliferation. The EC50 and maximal effect of each drug at each alpha2 receptor is determined. The efficacy or intrinsic activity is calculated as a ratio of the maximal effect of the drug to the maximal effect of a standard full agonist for each receptor subtype. Brimonidine, also called UK14304, is used as the standard agonist for the alpha2A, alpha2B, and alpha2C receptors.
(§4) The compounds activity is expressed as its relative efficacy compared to a standard full agonist.

alpha2B receptor = biological target: T2, alpha2B receptor (Homo sapiens, UniProt P18089); assay: RSAT assay, alpha 2B; assay type: cell-based; details: for (rel. efficacy) Alpha 2B: ratio of maximal effect to standard full agonist brimonidine (UK14304)
T2 construct: expressed in transfected cells; host or cells: NIH-3T3
T2 sequence (P18089 1-450): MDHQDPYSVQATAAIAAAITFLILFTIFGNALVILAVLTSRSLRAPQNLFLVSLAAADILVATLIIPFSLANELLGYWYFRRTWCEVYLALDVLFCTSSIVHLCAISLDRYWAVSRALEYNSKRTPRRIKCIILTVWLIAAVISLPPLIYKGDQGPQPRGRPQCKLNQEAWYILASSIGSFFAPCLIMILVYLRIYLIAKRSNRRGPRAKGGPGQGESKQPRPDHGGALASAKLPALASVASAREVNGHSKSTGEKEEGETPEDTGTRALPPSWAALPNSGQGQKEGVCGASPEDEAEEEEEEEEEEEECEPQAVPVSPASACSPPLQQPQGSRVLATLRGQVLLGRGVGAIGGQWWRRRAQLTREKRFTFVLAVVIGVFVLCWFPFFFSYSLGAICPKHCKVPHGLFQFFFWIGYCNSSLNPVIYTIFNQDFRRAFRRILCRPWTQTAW
Procedure: as §1, §2, §3, §4

alpha2A receptor = biological target: T3, alpha2A receptor (Homo sapiens, UniProt P08913); assay: RSAT assay, alpha 2A; assay type: cell-based; details: for (rel. efficacy) Alpha 2A: ratio of maximal effect to standard full agonist brimonidine (UK14304)
T3 sequence (P08913 1-465): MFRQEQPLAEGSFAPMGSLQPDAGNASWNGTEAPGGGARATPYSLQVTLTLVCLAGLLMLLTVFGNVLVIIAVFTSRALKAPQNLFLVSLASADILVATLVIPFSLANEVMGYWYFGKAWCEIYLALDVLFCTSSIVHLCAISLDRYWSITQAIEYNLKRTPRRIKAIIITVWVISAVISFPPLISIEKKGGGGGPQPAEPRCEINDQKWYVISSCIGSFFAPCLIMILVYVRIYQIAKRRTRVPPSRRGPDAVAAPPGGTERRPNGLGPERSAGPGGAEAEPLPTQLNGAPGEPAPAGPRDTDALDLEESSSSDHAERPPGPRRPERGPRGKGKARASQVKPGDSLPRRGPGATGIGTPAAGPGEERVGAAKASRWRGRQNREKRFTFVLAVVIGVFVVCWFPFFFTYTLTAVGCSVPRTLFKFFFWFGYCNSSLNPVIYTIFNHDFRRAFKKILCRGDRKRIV
Procedure: as §1, §2, §3, §4

[1] = tested on: patient with moderate post-herpetic neuralgia pain; assay: Treating post-herpetic neuralgia pain in a patient; assay type: in vivo; details: tablet twice daily as needed
From the text: A tablet including N-(2-methoxybenzyl)-4,5-dihydrooxazol-2-amine is delivered taken by the patient twice daily as needed for the pain.
II. […] A tablet including N-(2-methoxybenzyl)-4,5-dyhydrothizaol-2-amine is delivered taken by the patient twice daily as needed for the pain.
III. […] A tablet including N-(3-chloro-2-fluorobenzyl)-4,5-dihydrooxazol-2-amine is delivered taken by the patient twice daily as needed for the pain.

[2] = tested on: patient with moderate intraocular pressure in the right eye; assay: Treating elevated intraocular pressure in a patient; assay type: in vivo; details: ophthalmic composition to the right eye twice daily; two months later
From the text: An ophthalmic composition including N-(2-methoxybenzyl)-4,5-dihydrooxazol-2-amine is delivered to the right eye of the patient twice daily.
II. […] An ophthalmic composition including N-(2-methoxybenzyl)-4,5-dyhydrothizaol-2-amine is delivered to the right eye of the patient twice daily.
III. […] An ophthalmic composition including N-(3-chloro-2-fluorobenzyl)-4,5-dihydrooxazol-2-amine is delivered to the right eye of the patient twice daily.

[3] = tested on: diabetic patient with moderate neuropathy in the right leg; assay: Treating diabetic peripheral neuropathy in a patient; assay type: in vivo; details: topical composition on the right leg twice daily; two months later
Procedure: A topical composition including N-(2-methoxybenzyl)-4,5-dihydrooxazol-2-amine is administered on the right leg of the patient twice daily.
III. […] A topical composition including N-(2-methoxybenzyl)-4,5-dyhydrothizaol-2-amine is administered on the right leg of the patient twice daily.
III. […] A topical composition including N-(3-chloro-2-fluorobenzyl)-4,5-dihydrooxazol-2-amine is administered on the right leg of the patient twice daily.

[4] = RSAT, NIH-3T3 cells, NA = not active, read-out: EC50 (nM) Alpha 2C
[5] = RSAT, NIH-3T3 cells, NA = not active, read-out: EC50 (nM) Alpha 2A

| Compound | EC50 (alpha2C receptor) [nM] | (rel. efficacy) Alpha 2C (alpha2C receptor; RSAT) | EC50 (alpha2B receptor) [nM] | (rel. efficacy) Alpha 2B (alpha2B receptor; RSAT) | EC50 (alpha2A receptor) [nM] | (rel. efficacy) Alpha 2A (alpha2A receptor; RSAT) | EC50 (alpha2C receptor; [4]) [nM] | EC50 (alpha2A receptor; [5]) [nM] | EC50 (alpha2B receptor; RSAT, NIH-3T3 cells, NA = not active, read-out: EC50 (nM) Alpha 2B) [nM] | patient-reported pain [1] | intraocular pressure of the patient [2] | neuropathy of the patient [3] |
| --- | --- | --- | --- | --- | --- | --- | --- | --- | --- | --- | --- | --- |
| Brc1ccccc1CNC1=NCCS1 | 190 | 0.77 | 29 | 0.84 | 2780 | 0.37 | – | – | – | – | – | – |
| Fc1c(Br)cccc1CNC1=NCCS1 | 182 | 0.64 | 34 | 0.98 | 1380 | 0.44 | – | – | – | – | – | – |
| COc1ccc(Cl)cc1CNC1=NCCS1 | – | 0.55 | 77 | 0.85 | – | 0.38 | 465 | 2250 | – | – | – | – |
| Clc1ccc(Br)c(CNC2=NCCS2)c1 | – | 0.69 | – | 1.04 | – | 0.45 | 855 | 2270 | 250 | – | – | – |
| COc1c(Cl)cccc1CNC1=NCCS1 | 99 | 0.73 | 22 | 1.08 | 701 | 0.38 | – | – | – | – | – | – |
| COc1c(C)cccc1CNC1=NCCS1 | 187 | 0.97 | 27 | 0.98 | 481 | 0.57 | – | – | – | – | – | – |
| Cc1cccc(CNC2=NCCS2)c1Cl | 32 | 1.03 | 11 | 1.27 | – | 0.4 | – | 281 | – | – | – | – |
| COc1c(Br)cccc1CNC1=NCCS1 | – | 0.81 | 31 | 1.1 | – | 0.55 | 109 | 621 | – | – | – | – |
| Clc1c(Br)cccc1CNC1=NCCS1 | – | 0.98 | 18 | 1.01 | > 3000 | 0.4 | 198 | – | – | – | – | – |
| Fc1c(I)cccc1CNC1=NCCS1 | 88 | 1.05 | 6 | 1.0 | – | 1.07 | – | 589 | – | – | – | – |
| COc1ccccc1CNC1=NCCO1 [N-(2-methoxybenzyl)-4,5-dihydrooxazol-2-amine] | – | – | – | – | – | – | – | – | – | reduction of pain | normal intraocular pressure | reduction neuropathy |
| COc1ccccc1CNC1=NCCS1 [N-(2-methoxybenzyl)-4,5-dihydrothiazol-2-amine] | – | – | – | – | – | – | – | – | – | reduction of pain | normal intraocular pressure | reduction neuropathy |
| Fc1c(Cl)cccc1CNC1=NCCO1 [N-(3-chloro-2-fluorobenzyl)-4,5-dihydrooxazol-2-amine] | – | – | – | – | – | – | – | – | – | reduction of pain | normal intraocular pressure | reduction neuropathy |
